This is an account of results in US9879050B2, “Substituted urea depsipeptide analogs as activators of the CLPP endopeptidase” (priority 2013, dated 2018).

For one assay, the target named is T1, Sa-ClpP (Staphylococcus aureus, UniProt Q2G036).
T1 construct: made in house; host or cells: E. coli BL21 (DE3)
Put plainly: ClpP activation, EnzCheck Protease Assay with Bodipy-FL casein (second described method). Format: biochemical, S. aureus. The note with it: read-out: ClpP Activation EC50 (converted). The method, boiled down:
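Sa-ClpP (2 μM in master mix) with Bodipy-FL casein (2 μM in master mix) in Tris-HCl pH 8.0, 0.01% Triton X-100, compounds in 2% DMSO, triplicate. Fluorescence (ex 485/em 520 nm) followed 30 min; degradation slopes normalized to ADEP4 and DMSO controls, EC50 and % activation by four-parameter fit.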

For another assay, the system named is B. subtilis ATCC 23857. Put plainly: Minimal inhibitory concentration, microbroth dilution. Format: cell-based. Conditions: Bacillus subtilis, ATCC23857, read-out: Minimal Inhibitory Concentration B. subtilis ATCC 23857. The method, boiled down:
(§1)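 Compound was diluted twofold in the appropriate broth. Bacterial suspension (approx. 10^5 cfu/mL) was then added in equal volume, giving a maximum test concentration of 200 μM. After aerobic overnight incubation at 37 °C, wells were inspected visually for growth.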

A further assay has as its system E. coli K12ΔtolC. The description is as above. Format: cell-based. The method, boiled down: as §1
In a further assay the test system is E. faecails ATCC 33186. The description is as above. Format: cell-based. Conditions: Enterococcus faecalis, ATCC33186, read-out: Minimal Inhibitory Concentration E. faecails ATCC 33186. The method, boiled down:
as §1

Another assay deals with S. aureus ATCC 29213. Described as above. It is filed as cell-based. Conditions: Staphylococcus aureus, ATCC29213, read-out: Minimal Inhibitory Concentration S. aureus ATCC 29213. The method, boiled down: as §1
The test system of the next assay is S. pneumoniae DAW27. The description is as above. Format: cell-based. Conditions: Streptococcus pneumoniae, DAW27, read-out: Minimal Inhibitory Concentration S. pneumoniae DAW27. The method, boiled down:
as §1

The structures appear in SMILES notation. Converted amounts (≈) assume the structure as drawn.

T1 sequence (Q2G036 whole entry): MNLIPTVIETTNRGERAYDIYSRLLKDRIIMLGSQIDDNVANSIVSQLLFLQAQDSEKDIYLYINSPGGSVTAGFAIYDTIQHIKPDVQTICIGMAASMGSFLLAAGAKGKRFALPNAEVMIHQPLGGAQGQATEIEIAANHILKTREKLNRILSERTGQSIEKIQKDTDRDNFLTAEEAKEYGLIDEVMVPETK

As usually defined, the EC50 is the concentration at which the effect is half-maximal. As to `C[C@@H]1C[C@H]2C(=O)OC[C@H](NC(=O)[C@H](Cc3ccccc3)NC(=O)Nc3cccc(Cl)c3)C(=O)N3CCC[C@H]3C(=O)N3CCCC[C@H]3C(=O)N[C@@H](C)C(=O)N2C1` [Compound 9, (S)-2-(3-(3-Chlorophenyl)Ureido)-N-((2R,6S,8aS,14aS,20S,23aS)-2,6-Dimethyl-5,8,14,19,23-Pentaoxooctadecahydro-1H,5H,14H,19H-Pyrido[2,1-I]Dipyrrolo[2,1-C:2′,1′-L][1]Oxa[4,7,10,13]Tetraazacyclohexadecin-20-Yl)-3-Phenylpropanamide], the concentration giving a half-maximal response (EC50) on Sa-ClpP was 1.1 µM. Moreover, the MIC in the assay with B. subtilis ATCC 23857 stood at 1.56 µM (≈ 1.21 µg/mL); in the assay on E. faecails ATCC 33186, 1.56 µM (≈ 1.21 µg/mL); in the assay on S. aureus ATCC 29213, 3.13 µM (≈ 2.44 µg/mL); in the assay with S. pneumoniae DAW27, 0.78 µM (≈ 0.607 µg/mL). The “Minimal Inhibitory Concentration E. coli K12ΔtolC” value in the assay on E. coli K12ΔtolC is 25 µM.

Take `Cc1ccc(NC(=O)N[C@@H](Cc2cc(F)cc(F)c2)C(=O)N[C@H]2COC(=O)[C@@H]3C[C@@H](C)CN3C(=O)[C@H](C)NC(=O)[C@@H]3CCCCN3C(=O)[C@@H]3CCCN3C2=O)cc1` [Compound 24, (S)-3-(3,5-Difluorophenyl)-N-((2R,6S,8aS,14aS,20S,23aS)-2,6-Dimethyl-5,8,14,19,23-Pentaoxooctadecahydro-1H,5H,14H,19H-Pyrido[2,1-I]Dipyrrolo[2,1-C:2′,1′-L][1]Oxa[4,7,10,13]Tetraazacyclohexadecin-20-Yl)-2-(3-(P-Tolyl)Ureido)Propanamide]: at Sa-ClpP, the EC50 is 0.4 µM. Moreover, the MIC came to 2.2 µM (≈ 1.75 µg/mL) in the assay on B. subtilis ATCC 23857 and 0.5 µM (≈ 0.397 µg/mL) in the assay on S. aureus ATCC 29213.

As for `C[C@@H]1C[C@H]2C(=O)OC[C@H](NC(=O)[C@H](Cc3ccccc3)NC(=O)Nc3ccc(N(C)C)cc3)C(=O)N3CCC[C@H]3C(=O)N3CCCC[C@H]3C(=O)N[C@@H](C)C(=O)N2C1` [Compound 5, (S)—N-((2R,6S,8aS,14aS,20S,23aS)-2,6-Dimethyl-5,8,14,19,23-Pentaoxooctadecahydro-1H,5H,14H,19H-Pyrido[2,1-1]Dipyrrolo[2,1-C:2′,1′-L][1]Oxa[4,7,10,13]Tetraazacyclohexadecin-20-Yl)-2-(3-(4-(Dimethylamino)Phenyl)Ureido)-3-Phenylpropanamide], the EC50 on Sa-ClpP was 1.5 µM. Moreover, the MIC in the assay with B. subtilis ATCC 23857 was 0.78 µM (≈ 0.614 µg/mL); in the assay on E. faecails ATCC 33186 it was 0.78 µM (≈ 0.614 µg/mL); in the assay with S. aureus ATCC 29213 it was 6.25 µM (≈ 4.92 µg/mL); in the assay with S. pneumoniae DAW27 it was 0.39 µM (≈ 0.307 µg/mL). Further, the “Minimal Inhibitory Concentration E. coli K12ΔtolC” value in the assay with E. coli K12ΔtolC turned out to be 50 µM.

Regarding `C[C@@H]1C[C@H]2C(=O)OC[C@H](NC(=O)[C@H](Cc3ccccc3)NC(=O)Nc3ccc4c(c3)CCN4C)C(=O)N3CCC[C@H]3C(=O)N3CCCC[C@H]3C(=O)N[C@@H](C)C(=O)N2C1` [Compound 11, (S)—N-((2R,6S,8aS,14aS,20S,23aS)-2,6-Dimethyl-5,8,14,19,23-Pentaoxooctadecahydro-1H,5H,14H,19H-Pyrido[2,1-I]Dipyrrolo[2,1-C:2′,1′-L][1]Oxa[4,7,10,13]Tetraazacyclohexadecin-20-Yl)-2-(3-(1-Methylindolin-5-Yl)Ureido)-3-Phenylpropanamide], at Sa-ClpP, the concentration giving a half-maximal response (EC50) was 1.1 µM. Further, the MIC with B. subtilis ATCC 23857 amounted to 1.25 µM (≈ 0.999 µg/mL); in the assay with E. faecails ATCC 33186, 0.6 µM (≈ 0.479 µg/mL); in the assay with S. aureus ATCC 29213 it was 2.5 µM (≈ 2 µg/mL); with S. pneumoniae DAW27, 0.3 µM (≈ 0.24 µg/mL).

In the case of `C[C@@H]1C[C@H]2C(=O)OC[C@H](NC(=O)[C@H](Cc3ccccc3)NC(=O)Nc3ccccc3Cl)C(=O)N3CCC[C@H]3C(=O)N3CCCC[C@H]3C(=O)N[C@@H](C)C(=O)N2C1` [Compound 7, (S)-2-(3-(2-Chlorophenyl)Ureido)-N-((2R,6S,8aS,14aS,20S,23aS)-2,6-Dimethyl-5,8,14,19,23-Pentaoxooctadecahydro-1H,5H,14H,19H-Pyrido[2,1-I]Dipyrrolo[2,1-C:2′,1′-L][1]Oxa[4,7,10,13]Tetraazacyclohexadecin-20-Yl)-3-Phenylpropanamide], the EC50 at Sa-ClpP is 1.6 µM. The MIC in the assay with B. subtilis ATCC 23857 is 6.25 µM (≈ 4.86 µg/mL); in the assay on E. faecails ATCC 33186 it was 3.13 µM (≈ 2.44 µg/mL); in the assay on S. aureus ATCC 29213, 12.5 µM (≈ 9.73 µg/mL); in the assay with S. pneumoniae DAW27, 0.78 µM (≈ 0.607 µg/mL). Further, in the assay on E. coli K12ΔtolC, the “Minimal Inhibitory Concentration E. coli K12ΔtolC” value was found to be 200 µM.

As for `COc1ccc(NC(=O)N[C@@H](Cc2ccccc2)C(=O)N[C@H]2COC(=O)[C@@H]3C[C@@H](C)CN3C(=O)[C@H](C)NC(=O)[C@@H]3CCCCN3C(=O)[C@@H]3CCCN3C2=O)cc1` [Compound 6, (S)—N-((2R,6S,8aS,14aS,20S,23aS)-2,6-Dimethyl-5,8,14,19,23-Pentaoxooctadecahydro-1H,5H,14H,19H-Pyrido[2,1-1]Dipyrrolo[2,1-C:2′,1′-L][1]Oxa[4,7,10,13]Tetraazacyclohexadecin-20-Yl)-2-(3-(4-Methoxyphenyl)Ureido)-3-Phenylpropanamide], at Sa-ClpP, the EC50 was 0.8 µM. Moreover, the MIC amounted to 1.56 µM (≈ 1.21 µg/mL) in the assay on B. subtilis ATCC 23857, 0.78 µM (≈ 0.604 µg/mL) in the assay with E. faecails ATCC 33186, 3.13 µM (≈ 2.42 µg/mL) in the assay on S. aureus ATCC 29213 and 0.2 µM (≈ 0.155 µg/mL) with S. pneumoniae DAW27. In the assay with E. coli K12ΔtolC, the “Minimal Inhibitory Concentration E. coli K12ΔtolC” value was 50 µM.

Regarding `C[C@@H]1C[C@H]2C(=O)OC[C@H](NC(=O)[C@H](Cc3ccccc3)NC(=O)Nc3ccc(Cl)cc3)C(=O)N3CCC[C@H]3C(=O)N3CCCC[C@H]3C(=O)N[C@@H](C)C(=O)N2C1` [Compound 3, (S)-2-(3-(4-Chlorophenyl)Ureido)-N-((2R,6S,8aS,14aS,20S,23aS)-2,6-Dimethyl-5,8,14,19,23-Pentaoxooctadecahydro-1H,5H,14H,19H-Pyrido[2,1-I]Dipyrrolo[2,1-C:2′,1′-L][1]Oxa[4,7,10,13]Tetraazacyclohexadecin-20-Yl)-3-Phenylpropanamide], at Sa-ClpP, the 50% effective concentration (EC50) is 1.5 µM. The MIC in the assay with B. subtilis ATCC 23857 was determined as 0.78 µM (≈ 0.607 µg/mL); in the assay on E. faecails ATCC 33186 it was 0.2 µM (≈ 0.156 µg/mL); in the assay with S. aureus ATCC 29213, 1.56 µM (≈ 1.21 µg/mL); in the assay on S. pneumoniae DAW27 it was 0.2 µM (≈ 0.156 µg/mL). The “Minimal Inhibitory Concentration E. coli K12ΔtolC” value with E. coli K12ΔtolC was 25 µM.
